In the supplement of paper PMC10307832:

Columns and labels:
Assay in all cases: relative viability (nuclei count vs DMSO), 5 days (fraction); higher = more cells survive
[1] = compound: O=S(=O)(c1ccccc1)N(CC(F)(F)F)c1ccc(C(O)(C(F)(F)F)C(F)(F)F)cc1 + COc1cc2c(Oc3ccc(NC(=O)C4(C(=O)Nc5ccc(F)cc5)CC4)cc3F)ccnc2cc1OCCCN1CCOCC1 [Foretinib] (partner 0.25 µM)
Outline: (§1)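 Cells from lung cancer lines were seeded into 1536-well plates and, one day later, dosed by pin tool. Treatments were either a single drug or a fixed dose of an anchor drug with five library-drug doses (not always all listed) in √10 steps. After 5 days, nuclei were stained in a one-step fixation (final 0.05% Triton X-100, 1% formaldehyde, 1 ug/ml Hoechst) and counted on 4× images, and relative viability is the treated-to-vehicle nuclei ratio, as the median of duplicate plates.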

[2] = compound: O=S(=O)(c1ccccc1)N(CC(F)(F)F)c1ccc(C(O)(C(F)(F)F)C(F)(F)F)cc1 + CC(C)C[C@H](NC(=O)[C@H](Cc1ccccc1)NC(=O)c1cnccn1)B(O)O [Bortezomib] (partner 0.002 µM)
Outline: as §1

[3] = compound: O=S(=O)(c1ccccc1)N(CC(F)(F)F)c1ccc(C(O)(C(F)(F)F)C(F)(F)F)cc1 + Cc1nc(Nc2ncc(C(=O)Nc3c(C)cccc3Cl)s2)cc(N2CCN(CCO)CC2)n1 [Dasatinib] (partner 0.075 µM)
Outline: as §1

[4] = compound: C1=CC2=C(C=CC(=C2)C=C3C(=O)NC(=NCC4=CC=CS4)S3)N=C1 [RO-3306] + CC(C)C[C@H](NC(=O)[C@H](Cc1ccccc1)NC(=O)c1cnccn1)B(O)O [Bortezomib] (partner 0.002 µM)
Outline: as §1

[5] = compound: O=S(=O)(c1ccccc1)N(CC(F)(F)F)c1ccc(C(O)(C(F)(F)F)C(F)(F)F)cc1 + CCNC(=O)c1noc(-c2cc(C(C)C)c(O)cc2O)c1-c1ccc(CN2CCOCC2)cc1 [Luminespib] (partner 0.01 µM)
Outline: as §1

Cell Line | relative viability ([1]; first compound 0.8 µM) | relative viability ([1]; first compound 2.53 µM) | relative viability ([1]; first compound 8 µM) | relative viability ([2]; first compound 0.8 µM) | relative viability ([2]; first compound 2.53 µM) | relative viability ([2]; first compound 8 µM) | relative viability ([3]; first compound 0.8 µM) | relative viability ([3]; first compound 2.53 µM) | relative viability ([3]; first compound 8 µM) | relative viability ([4]; first compound 0.01 µM) | relative viability ([4]; first compound 0.03162 µM) | relative viability ([4]; first compound 0.1 µM) | relative viability ([4]; first compound 0.3162 µM) | relative viability ([4]; first compound 1 µM) | relative viability ([5]; first compound 0.8 µM) | relative viability ([5]; first compound 2.53 µM) | relative viability ([5]; first compound 8 µM)
HCC-827 | 1.04 | 1.02 | 0.922 | 1.08 | 0.979 | 1.04 | 0.37 | 0.36 | 0.316 | 0.995 | 0.907 | 1.13 | 1.02 | 1.04 | 0.439 | 0.589 | 0.573
HOP-62 | 1.08 | 1.09 | 0.881 | 0.39 | 0.634 | 0.93 | 0.716 | 0.552 | 0.544 | 0.505 | 0.961 | 0.674 | 0.882 | 1.03 | 0.903 | 0.907 | 0.862
IA-LM | 1.08 | 1 | 1.12 | 0.727 | 0.522 | 0.77 |  |  |  | 0.86 | 0.8 | 0.745 | 0.6 | 0.969 |  |  | 
LC-2-ad | 1.06 | 0.912 | 0.867 | 1.02 | 1.03 | 0.898 | 0.655 | 0.525 | 0.627 | 1.1 | 0.976 | 0.965 | 1.09 | 0.712 | 0.898 | 0.892 | 0.864
LCLC-97TM1 | 0.914 | 0.928 | 0.805 | 0.397 | 0.457 | 0.723 | 0.724 | 0.734 | 0.682 | 1.06 |  | 0.689 | 0.455 | 0.531 | 0.716 | 0.744 | 0.682
LCLC-103H | 0.973 | 0.758 | 0.81 | 1.18 | 1.04 | 1.12 | 0.553 | 0.484 | 0.51 | 1.06 | 1.03 | 1.01 | 0.927 | 0.815 | 1.07 | 0.862 | 0.845
LK-2 | 1.21 | 1.16 | 0.835 |  |  |  | 0.36 | 0.37 | 0.432 |  |  |  |  |  | 0.175 | 0.174 | 0.227
LOU-NH91 | 0.999 | 0.884 | 0.937 | 0.536 | 0.51 | 0.484 | 0.576 | 0.567 | 0.68 | 0.557 | 0.491 | 0.441 | 0.483 | 0.442 | 0.404 | 0.353 | 0.285
LU99A | 0.785 | 0.773 | 0.725 | 1.34 | 1.17 | 1.16 | 0.652 | 0.603 | 0.629 | 1.38 | 1.09 | 1.04 | 0.98 | 1.07 | 0.332 | 0.226 | 0.185
LXF-289 | 0.993 | 0.88 | 0.812 | 0.952 | 0.899 | 0.898 | 0.163 | 0.141 | 0.153 | 0.992 | 0.928 | 1.05 | 0.95 | 0.929 | 0.858 | 0.559 | 0.641
NCI-H23 | 1.02 | 1.16 | 1 | 1.45 | 1.23 | 1.09 | 1.03 | 1.04 | 0.907 | 1.04 | 0.755 | 1.1 | 0.944 | 0.773 | 0.2 | 0.206 | 0.255
NCI-H322M | 1.08 | 0.915 | 0.953 | 1.48 | 1.02 | 1.23 | 0.261 | 0.267 | 0.288 | 1.17 | 1.12 | 1.19 | 1.32 | 1.22 | 1.13 | 0.946 | 1
NCI-H358 | 0.592 | 0.557 | 0.45 |  |  |  | 0.124 | 0.144 | 0.148 |  |  |  |  |  | 0.195 | 0.332 | 0.352
NCI-H522 |  |  |  |  |  |  | 0.821 | 0.904 | 1.07 |  |  |  |  |  | 1.39 | 1.27 | 1.07
NCI-H1299 | 1.1 | 1.07 | 1 | 1.02 | 0.981 | 0.946 |  |  |  | 1.07 | 1.07 | 1.04 | 1.07 | 1.05 |  |  | 
NCI-H1395 | 0.924 | 0.862 | 0.994 |  |  |  | 0.321 | 0.375 | 0.414 |  |  |  |  |  | 0.75 | 0.701 | 0.714
NCI-H1623 | 0.802 | 0.805 | 0.851 |  |  |  | 0.528 | 0.51 | 0.493 |  |  |  |  |  | 0.625 | 0.411 | 0.491
NCI-H1703 | 0.339 | 0.23 | 0.29 | 0.389 | 0.185 | 0.381 |  |  |  | 0.646 | 0.261 | 0.349 | 0.203 | 0.289 |  |  | 
NCI-H1792 |  |  |  | 0.973 | 0.842 | 0.737 | 0.712 | 0.587 | 0.506 | 1.17 |  | 0.95 | 0.991 | 0.538 | 0.419 | 0.359 | 0.269
NCI-H1793 | 0.484 | 0.321 | 0.566 |  |  |  | 0.375 | 0.335 | 0.347 |  |  |  |  |  | 0.162 | 0.149 | 0.172
NCI-H1944 | 0.938 | 0.826 | 0.832 |  |  |  | 0.222 | 0.233 | 0.191 |  |  |  |  |  | 0.946 | 0.786 | 0.68
NCI-H2170 | 1.02 | 0.88 | 0.837 |  |  |  | 0.568 | 0.588 | 0.444 |  |  |  |  |  | 0.855 | 0.474 | 0.489
NCI-H2342 | 1.15 | 1.03 | 0.951 |  |  |  | 0.286 | 0.31 | 0.326 |  |  |  |  |  | 0.809 | 0.782 | 0.628
SK-MES-1 | 0.723 | 0.728 | 0.767 |  |  |  | 0.318 | 0.332 | 0.255 |  |  |  |  |  | 0.677 | 0.744 | 0.533
SW 900 | 0.752 | 0.784 | 0.82 |  |  |  | 0.625 | 0.563 | 0.478 |  |  |  |  |  | 0.181 | 0.192 | 0.172
